According to patent publication US20240225066A1, “MOGROSIDE COMPOUNDS AND THEIR COMESTIBLE USE” (Firmenich Incorporated, priority 2021, published 2024):

Biological target: T1, recombinant human sweet receptor (Homo sapiens, UniProt Q7RTX0+Q8TE23)
T1 construct: expressed in transfected cells
T1 sequence (Q8TE23 20-839): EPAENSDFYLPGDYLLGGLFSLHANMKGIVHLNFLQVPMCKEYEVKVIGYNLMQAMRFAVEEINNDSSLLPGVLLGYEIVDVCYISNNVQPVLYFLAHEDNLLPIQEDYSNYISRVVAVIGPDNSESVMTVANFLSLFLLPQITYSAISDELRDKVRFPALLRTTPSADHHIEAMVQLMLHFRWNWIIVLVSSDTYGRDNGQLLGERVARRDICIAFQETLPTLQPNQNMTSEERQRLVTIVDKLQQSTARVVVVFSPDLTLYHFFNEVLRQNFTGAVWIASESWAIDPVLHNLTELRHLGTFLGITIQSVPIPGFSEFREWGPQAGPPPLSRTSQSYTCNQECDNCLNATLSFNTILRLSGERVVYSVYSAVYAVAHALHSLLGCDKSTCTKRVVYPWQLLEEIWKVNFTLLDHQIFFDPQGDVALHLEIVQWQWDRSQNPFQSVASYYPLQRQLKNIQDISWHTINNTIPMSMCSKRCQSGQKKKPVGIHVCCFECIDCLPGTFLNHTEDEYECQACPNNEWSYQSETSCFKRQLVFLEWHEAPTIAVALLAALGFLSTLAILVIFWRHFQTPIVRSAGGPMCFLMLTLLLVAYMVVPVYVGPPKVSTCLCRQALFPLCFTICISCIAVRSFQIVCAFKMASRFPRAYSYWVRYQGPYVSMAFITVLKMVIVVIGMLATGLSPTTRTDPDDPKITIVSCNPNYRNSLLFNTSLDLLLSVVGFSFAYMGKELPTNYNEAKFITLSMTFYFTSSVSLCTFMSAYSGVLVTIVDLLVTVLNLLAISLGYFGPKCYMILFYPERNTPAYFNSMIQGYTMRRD
T1 sequence (Q7RTX0 21-852): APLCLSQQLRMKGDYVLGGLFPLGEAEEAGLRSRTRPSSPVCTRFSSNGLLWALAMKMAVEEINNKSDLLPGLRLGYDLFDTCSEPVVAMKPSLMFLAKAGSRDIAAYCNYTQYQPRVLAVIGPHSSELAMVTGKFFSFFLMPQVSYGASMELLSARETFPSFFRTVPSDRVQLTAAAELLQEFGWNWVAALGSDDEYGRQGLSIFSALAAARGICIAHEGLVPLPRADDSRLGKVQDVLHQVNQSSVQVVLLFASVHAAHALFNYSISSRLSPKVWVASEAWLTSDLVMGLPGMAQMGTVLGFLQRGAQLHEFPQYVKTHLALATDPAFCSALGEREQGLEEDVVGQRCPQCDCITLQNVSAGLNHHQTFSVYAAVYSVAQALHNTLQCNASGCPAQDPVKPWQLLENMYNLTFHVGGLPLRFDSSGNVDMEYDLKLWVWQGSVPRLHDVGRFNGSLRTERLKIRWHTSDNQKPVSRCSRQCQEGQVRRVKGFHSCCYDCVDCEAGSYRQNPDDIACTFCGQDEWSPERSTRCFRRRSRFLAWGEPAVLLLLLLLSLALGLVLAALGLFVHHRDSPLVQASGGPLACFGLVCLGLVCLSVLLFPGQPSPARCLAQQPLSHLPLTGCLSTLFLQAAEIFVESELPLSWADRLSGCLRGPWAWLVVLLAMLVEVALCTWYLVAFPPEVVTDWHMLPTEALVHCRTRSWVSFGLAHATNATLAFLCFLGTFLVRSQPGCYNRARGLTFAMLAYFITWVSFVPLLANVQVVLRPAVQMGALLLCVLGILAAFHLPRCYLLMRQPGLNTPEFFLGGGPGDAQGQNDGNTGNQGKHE
Test: Sweet receptor assay, calcium imaging (Fluo-4 AM) in cells stably expressing the receptor and chimeric G-protein G16g25
Assay type: cell-based
Protocol: Cells stably expressing the recombinant human sweet receptor and the chimeric G-protein G16g25 were dispensed in a 384-well clear bottom plate (Fisher) and incubated overnight at 37° C. and 6% CO2. On the day of the experiment, cells were loaded with 4 μM of the calcium indicator Fluo-4 AM (Invitrogen) in D-PBS for 1 hour at room temperature and excess dye washed away with D-PBS, leaving a residual volume of 25 μL/well. After 30 minutes of rest time the cell plate and the compound plate were transferred into a fluorometric imaging plate reader (Molecular Devices). To determine potency, compound plates were prepared with serial dilutions of compound at 2× the final assay concentration in D-PBS. Imaging and data analysis was performed according to the procedures set forth in Servant et al., PROC. NAT'L ACAD. SCI. USA, vol. 107(10), pp. 4746-51 (2010).

C[C@H](CC[C@@H](O[C@@H]1O[C@H](CO[C@H]2O[C@H](CO)[C@@H](O)[C@H](O)[C@H]2O)[C@@H](O)[C@H](O)[C@H]1O[C@@H]1O[C@H](CO)[C@@H](O)[C@H](O)[C@H]1O)C(C)(C)O)[C@H]1CC[C@@]2(C)C3CC=C4[C@@H](CC[C@H](O[C@@H]5O[C@H](CO)[C@@H](O[C@@H]6O[C@H](CO)[C@@H](O)[C@H](O)[C@H]6O)[C@H](O)[C@H]5O)C4(C)C)[C@]3(C)[C@H](O)C[C@]12C (some centres unmarked) [MC1]
EC50 (Fluo-4 AM calcium signal, fluorometric imaging plate reader, read-out: EC50 of the dose-response curve in the sweet taste assays): 8 µM | dose-response effect in the sweet taste assays (serial dilutions of compound): showed a dose-response effect indicative of its utility as a sweetener
